Consider 15 molecules from US10501414B2, “Indole analogs as 5-oxo-ETE receptor antagonists and method of use thereof” (THE ROYAL INSTITUTION FOR THE ADVANCEMENT OF …, priority 2015, dated 2019).

A short description of series [1]: Antagonist concentrations in blood (plasma) following oral administration. Format: in vivo. The conditions noted are these: cynomolgus monkeys. How it is done:
Measurement of Antagonist Concentrations in Blood Following Oral Administration
Antagonists dissolved in ethanol (5 to 75 mg/ml) and added to 20 mM NaHCO3 pH 8.0. The resulting suspension (7 to 13 ml containing 10% ethanol) was administered by gavage (between 1 and 30 mg/kg) to cynomolgous monkeys (3 to 4 kg body weight). After different times (between 0.5 and 24 h as well as just prior to administration of antagonist) blood samples (1-2 ml) were taken and centrifuged to obtain plasma, which was frozen and transported to the laboratory as soon as the experiment was complete. Upon arrival at the laboratory, the plasma samples were thawed and the internal standards (1.5 μg), along with 2 volumes of MeOH, were added, the mixture vortexed, and then stored at −80° C. until analysis. The internal standards were structural analogs containing different numbers of methylene groups. Prior to analysis the plasma samples were warmed to room temperature, the above plasma samples containing MeOH were centrifuged and water was added to the supernatant to give a final concentration of 30%. The samples were then applied to a C18 SepPak cartridge (Waters Associates) that had previously been washed with MeOH followed by water (Powell, W. S., Prostaglandins, 1980. 20: p. 947-957). The extracts were analyzed by reversed-phase HPLC combined with automated precolumn extraction (Powell, W. S., Anal. Biochem., 1987. 164: p. 117-131). The stationary phase for the separation was a Novapak C18 column (4 μm particle size; 3.9×150 mm). The amounts of antagonists were determined on the basis of UV absorbance by comparing the peak area for the antagonist in question with that for the corresponding internal standard and correcting for any difference in extinction coefficient.
To examine the PK profiles of compounds V197 and V230 these compounds were administered to cynomolgus monkeys by oral gavage at a dose of 30 mg/kg. Plasma levels were measured following solid-phase extraction by reversed-phase high performance liquid chromatography (HPLC) after 0.5, 1, 2, 4, 8, 18, and 24 h using appropriate internal standards.

The target of series [2] is T1, OXE receptor (Homo sapiens, UniProt Q8TDS5).
T1 construct: Human granulocytes (≥95% neutrophils) are prepared from whole blood; endogenous in cells; host or cells: human granulocytes (≥95% neutrophils) from whole blood
T1 sequence (Q8TDS5 whole entry): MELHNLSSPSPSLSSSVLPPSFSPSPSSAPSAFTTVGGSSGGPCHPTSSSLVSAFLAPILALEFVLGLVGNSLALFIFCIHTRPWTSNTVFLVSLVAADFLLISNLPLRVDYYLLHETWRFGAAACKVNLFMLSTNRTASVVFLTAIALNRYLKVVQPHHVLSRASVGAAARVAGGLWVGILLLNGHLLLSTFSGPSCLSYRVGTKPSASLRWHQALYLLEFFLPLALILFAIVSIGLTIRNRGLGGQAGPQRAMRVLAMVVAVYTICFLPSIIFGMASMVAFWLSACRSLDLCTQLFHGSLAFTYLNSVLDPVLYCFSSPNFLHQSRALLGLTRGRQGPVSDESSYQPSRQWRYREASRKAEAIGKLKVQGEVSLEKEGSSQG
Briefly: Calcium mobilization in human granulocytes (inhibition of 5-oxo-ETE-induced calcium mobilization). It counts as cell-based. The conditions noted are these: for times less potent than compound V230 in blocking 5-oxo-ETE-induced calcium mobilization in neutrophils: relative to V230. How it is done:
Evaluation of Antagonist Activity: Calcium Mobilization in Human Granulocytes
Human granulocytes (≥95% neutrophils) are prepared from whole blood using Dextran 500 to remove red blood cells, followed by centrifugation over Ficoll-Paque to remove mononuclear cells and hypotonic lysis of any remaining red blood cells. After centrifugation the granulocytes are suspended in Ca^++/Mg^++-free phosphate-buffered saline (PBS^−). Granulocytes (10^7 cells/ml) are incubated with the acetoxymethyl ester of indo-1 (1 μM) for 30 min, followed by washing twice with PBS^− and resuspension in the same medium to obtain a final cell concentration of 3.22×10^6 cells/ml. Five minutes prior to commencing data acquisition, Ca^++ and Mg^++ are added to give final concentrations of 1.8 and 1 mM, respectively. Calcium measurements are performed at 37° C. using a spectrofluorometer equipped with a temperature-controlled cuvette holder and a magnetic stirrer. The excitation and emission wavelengths are 331 nm and 410 nm, respectively. Following stabilization of the baseline, fluorescence is measured for 1 min, prior to the addition of either vehicle or various concentrations of a potential 5-oxo-ETE antagonist. Two min later, 5-oxo-ETE (10 nM) is added, followed 1 min later by digitonin (final concentration 0.1%). Data acquisition is terminated after a further 0.5 min. Fmax is determined from fluorescence measurements after the addition of digitonin, whereas Fmin is determined after determination of autofluorescence as described in the literature. A dissociation constant of 250 nM for the indo-1/Ca^++ complex is used to calculate [Ca^++]i. The % inhibition of 5-oxo-ETE-induced calcium mobilization by the antagonist is calculated as follows: Inhibition (%)=(1−(Caant/Ca^++veh))×100 where Caant is the increase in cytosolic calcium levels induced by 5-oxo-ETE (10 nM) following the addition of a potential antagonist, whereas Caveh is the response induced by 5-oxo-ETE following addition of vehicle alone.
In general terms: Calcium assays in cells follow changes in intracellular calcium, usually with a dye or a luminescent sensor.

A short description of series [3]: Metabolism of OXE antagonists by monkey liver microsomes. Format: in vitro ADME, cynomolgous monkey. How it is done:
Metabolism of OXE Antagonists by Monkey Microsomes
Microsomes (catalog number MKMC-PL) from cynomolgous monkey liver were obtained from Life Technologies. Antagonists (100 μM) were incubated for various times with liver microsomes (0.5 mg protein/ml) in PBS in the presence of NADPH (2 mM). After various times aliquots (0.1 ml) were removed and placed in a tube containing 0.36 ml ice-cold methanol. After addition of 0.74 ml of water along with 1 μg of an appropriate internal standard the samples were stored at −80° C. until analysis by reversed-phase HPLC.
(Liver microsomes are vesicles of endoplasmic reticulum, rich in cytochrome P450 enzymes.)

The test system of series [4] is 5-oxo-ETE-induced dermal eosinophil infiltration. The experiment in a line: Inhibition of 5-oxo-ETE-induced dermal eosinophil infiltration. Format: in vivo. The conditions noted are these: Rhesus monkeys, biopsy at 24 h. How it is done: Inhibition of 5-Oxo-ETE-Induced Dermal Eosinophil Infiltration
Rhesus monkeys (n=6) were injected intradermally with 5-oxo-ETE (5 μg) or vehicle. Compound 50 (5 or 10 mg/kg) or vehicle were administered by oral gavage both 1 h before and 7 h after injection of 5-oxo-ETE.
Skin biopsies were taken 24 h after administration of 5-oxo-ETE and sections from paraffin-embedded tissue were stained for eosinophil major basic protein, followed by counting of eosinophils.

Series [5] concerns the target T1, OXE receptor. The conditions noted are these: previously described values for V230 and its enantiomers; read-out: IC50, previously disclosed/reported; cited from earlier work.
[6] abbreviates: oral gavage 30 mg/kg, over 24 h.
The mark [7] stands for this setting: inhibition of calcium mobilization induced by 5-oxo-ETE (10 nM) in human granulocytes, bracketed figure in cell = n, read-out: IC50.
The mark [8] stands for this setting: 5-oxo-ETE-induced calcium mobilization.
Where [9] appears, read: oral gavage 30 mg/kg, over 24 h, 30 mg/kg.

Molecules are shown by their SMILES. Entries after “also recorded” stand apart in the source; their conditions may differ. Read-outs that look alike come from different tables or passages of the source.

Consider `CC(CC(=O)O)CC(=O)c1c(CCCCCCc2ccccc2)n(C)c2ccc(Cl)cc12` (racemic) [Compound 15, 5-(5-chloro-1-methyl-2-(6-phenylhexyl)-1H-indol-3-yl)-3-methyl-5-oxopentanoic acid], for which the “course of plasma levels / PK profile in words” value in series [1] (setting [6]) is listed as “declined much more slowly than the S-enantiomer”. Also, the IC50 in series [2] (setting [7]) amounted to 0.18 nM.
With `C[C@@H](CC(=O)O)CC(=O)c1c(CCCCCCc2ccccc2)n(C)c2ccc(Cl)cc12` (single isomer, unassigned) [Compound 61], the “course of plasma levels / PK profile in words” value in series [1] (setting [6]) is “higher than those of the S-enantiomer and dropped much more slowly”. Besides, the IC50 in series [2] (setting [7]) is 23 ± 2 nM.
Take `C[C@H](CC(=O)O)CC(=O)c1c(CCCCCCc2ccccc2)n(C)c2ccc(Cl)cc12` [Compound 46, (S)-5-(5-chloro-1-methyl-2-(6-phenylhexyl)-1H-indol-3-yl)-3-methyl-5-oxopentanoic acid]: in series [1] (setting [6]), the “course of plasma levels / PK profile in words” value is recorded as “fell much more slowly” and the “plasma levels relative to V230 at later time points” value is “at least 10 times higher”. Also, the IC50 in series [2] (setting [7]) was found to be 0.1 nM. In addition, in series [3] (4 h, in favor of 46), the “difference in unmetabolized:metabolized ratio versus V230” value stood at 4 fold.
As for `C[C@H](CC(=O)O)CC(=O)c1c(C(O)CCCCCc2ccccc2)n(C)c2ccc(Cl)cc12` (stereo partly drawn) [Compound 46M], in series [1] (oral gavage 30 mg/kg (46M after administration of 46)), the “time to peak / maximal plasma levels” value lay within 8 to 12 h. In addition, the “antagonist activity / potency in words” value in series [2] (setting [8]) is given as 5-oxo-ETE-induced calcium mobilization inhibitors. Further, in series [2] (setting [7]), the IC50 worked out at 0.8 ± 0.3 nM.
As to `C[C@H](CC(=O)O)CC(=O)c1c(CCCCCCc2cccc(Cl)c2)n(C)c2ccc(Cl)cc12` [Compound 50, (S)-5-(5-chloro-2-(6-(3-chlorophenyl)hexyl)-1-methyl-1H-indol-3-yl)-3-methyl-5-oxopentanoic acid], the IC50 in series [2] (5-oxo-ETE-induced calcium mobilization, read-out: potency (IC50) in the picomolar range) is about 0.008 nM; in series [2] (setting [7]), 0.0081 ± 0.0013 nM. Moreover, the 5-Oxo-ETE-induced eosinophil infiltration entry in series [4] (5 mg/kg oral gavage 1 h before and 7 h after 5-oxo-ETE, p<0.005) is “significantly inhibited”; in series [4] (10 mg/kg oral gavage 1 h before and 7 h after 5-oxo-ETE, p<0.02), “significantly inhibited”.
For `C[C@@H](CC(=O)O)CC(=O)c1c(CCCC/C=C\c2ccccc2)n(C)c2ccc(Cl)cc12` [Compound 96], the IC50 in series [2] (setting [7]) was 5.5 nM.
Turning to `C[C@H](CC(=O)O)CC(=O)c1c(CCCC/C=C/c2ccccc2)n(C)c2ccc(Cl)cc12` [Compound 97], the IC50 in series [2] (setting [7]) was determined as 0.071 ± 0.024 nM.
Same read-out and setting: as for `C[C@@H](CC(=O)O)CC(=O)c1c(CCCC/C=C/c2ccccc2)n(C)c2ccc(Cl)cc12` [Compound 98], the figure is 1.1 ± 0.19 nM.
As for `CC(C)CCCCc1c(C(=O)CC(C)CC(=O)O)c2cc(Cl)ccc2n1C` (stereo not drawn) [Compound V197, reference compound], the “course of plasma levels / PK profile in words” value in series [1] (setting [9]) was “dropped quite rapidly after 1 h; also recorded: inferior to that of compound V230”. Also, in series [2] (setting [7]), the IC50 was 20 nM.
For `CCC(C)CCCc1c(C(=O)CC(C)CC(=O)O)c2cc(Cl)ccc2n1C` (stereo not drawn) [Compound V225, reference compound], the “antagonist activity / potency in words” value in series [2] (setting [8]) is given as “somewhat less potent”. Besides, the IC50 in series [2] (setting [7]) came to 88 ± 26 nM.
Turning to `CCCCCCc1c(C(=O)C[C@H](C)CC(=O)O)c2cc(Cl)ccc2n1C` [Compound V230, reference compound], the “extent of metabolism in plasma in words” value in series [1] (oral gavage 30 mg/kg, after 8 h, compared with 46) is “much greater”. Besides, the “course of plasma levels / PK profile in words” value in series [1] (setting [9]) is reported as “dropped quite rapidly after 1 h; also recorded: rapid decline”. Also, the “extent of metabolism by microsomes in words” value in series [3] (NADPH, up to 4 h, compared with 46) is given as “much greater”. For the same molecule, the IC50 in series [5] was 26 ± 4 nM.
On to `CCCCCC(O)c1c(C(=O)CC(C)CC(=O)O)c2cc(Cl)ccc2n1C` (stereo not drawn) [Compound V230M, reference compound], for which, in series [2] (setting [8]), the “antagonist activity / potency in words” value is reported as “significantly reduced IC50”. For the same molecule, in series [2] (setting [7]), the IC50 came out at 3300 ± 1100 nM.
For `CC(O)CCCCc1c(C(=O)CC(C)CC(=O)O)c2cc(Cl)ccc2n1C` (stereo not drawn) [Met a V230 (ω-1)OH, reference compound], the IC50 in series [2] (setting [7]) came to 1600 ± 400 nM. Moreover, the “times less potent than compound V230 in blocking 5-oxo-ETE-induced calcium mobilization in neutrophils” value in series [2] is “about 100 times”.
The corresponding values for `CC(=O)CCCCc1c(C(=O)CC(C)CC(=O)O)c2cc(Cl)ccc2n1C` (stereo not drawn) [Met b V230 (ω-1)oxo, reference compound] are 1900 ± 500 nM and “about 100 times”.
With `CC(CC(=O)O)CC(=O)c1c(CCCCCCO)n(C)c2ccc(Cl)cc12` (stereo not drawn) [V230 ω-OH, reference compound], in series [2] (setting [7]), the IC50 is 260 ± 30 nM.
